The record followed here is ChEMBL document CHEMBL2346648, “A series of thiazole derivatives bearing thiazolidin-4-one as non-competitive ADAMTS-5 (aggrecanase-2) inhibitors” (Bioorg Med Chem Lett, 2013).

Each structure is given as a SMILES string. Where only a bound is given, the exact number is not on record here.

Series [1] in a line: Intrinsic clearance in […]. The format is ADME.
Series [2] deals with Matrix metalloproteinase-14 (Homo sapiens, UniProt P50281). As to the kind of experiment: Inhibition of MMP14 (unknown origin) by FRET method.
Series [3] addresses T1, A disintegrin and metalloproteinase with thrombospondin motifs 5 (Homo sapiens, UniProt Q9UNA0).
T1 sequence (Q9UNA0 whole entry): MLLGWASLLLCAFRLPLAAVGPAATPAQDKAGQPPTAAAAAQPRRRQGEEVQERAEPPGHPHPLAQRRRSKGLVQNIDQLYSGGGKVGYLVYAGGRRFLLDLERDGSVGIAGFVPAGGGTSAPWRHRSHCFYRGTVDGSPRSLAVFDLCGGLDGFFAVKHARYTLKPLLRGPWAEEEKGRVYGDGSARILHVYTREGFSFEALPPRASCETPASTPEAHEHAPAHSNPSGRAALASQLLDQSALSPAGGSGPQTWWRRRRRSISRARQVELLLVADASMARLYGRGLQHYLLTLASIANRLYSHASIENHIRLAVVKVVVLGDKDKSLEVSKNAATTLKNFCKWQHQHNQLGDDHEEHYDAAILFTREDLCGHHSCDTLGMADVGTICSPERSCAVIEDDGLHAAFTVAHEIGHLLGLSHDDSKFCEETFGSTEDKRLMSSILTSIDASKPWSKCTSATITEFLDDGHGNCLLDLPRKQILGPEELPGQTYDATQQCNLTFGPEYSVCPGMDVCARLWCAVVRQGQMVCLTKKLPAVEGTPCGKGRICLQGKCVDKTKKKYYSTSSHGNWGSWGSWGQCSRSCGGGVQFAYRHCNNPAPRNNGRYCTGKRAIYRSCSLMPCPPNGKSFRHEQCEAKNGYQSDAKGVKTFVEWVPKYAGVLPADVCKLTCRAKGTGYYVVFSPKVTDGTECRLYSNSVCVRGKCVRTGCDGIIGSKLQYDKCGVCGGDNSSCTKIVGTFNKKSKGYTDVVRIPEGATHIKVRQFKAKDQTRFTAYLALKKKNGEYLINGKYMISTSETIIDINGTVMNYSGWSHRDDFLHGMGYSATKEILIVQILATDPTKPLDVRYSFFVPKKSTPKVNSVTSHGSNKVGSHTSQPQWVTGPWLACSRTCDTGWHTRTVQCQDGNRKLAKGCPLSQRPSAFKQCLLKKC
As to the kind of experiment: Inhibition of human His-tagged ADAMTS-5 using QF-peptide as substrate by FRET method.

Series [4] deals with T2, A disintegrin and metalloproteinase with thrombospondin motifs 5 (Bos taurus) (UniProt Q9TT92).
T2 sequence (whole entry): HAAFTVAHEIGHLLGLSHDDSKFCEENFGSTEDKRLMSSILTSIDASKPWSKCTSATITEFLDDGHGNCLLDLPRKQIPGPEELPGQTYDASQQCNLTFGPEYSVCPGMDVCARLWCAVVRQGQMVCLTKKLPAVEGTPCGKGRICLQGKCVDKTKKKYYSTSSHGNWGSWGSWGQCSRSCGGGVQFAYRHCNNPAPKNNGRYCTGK
As to the kind of experiment: Ex vivo inhibition of ADAMTS-5-mediated aggrecan degradation in IL-1-stimulated bovine cartilage explant at 30 uM.

The target in series [5] is 72 kDa type IV collagenase (Homo sapiens, UniProt P08253). In words: Inhibition of MMP2 (unknown origin) by FRET method.
Sequence of 72 kDa type IV collagenase (P08253 whole entry): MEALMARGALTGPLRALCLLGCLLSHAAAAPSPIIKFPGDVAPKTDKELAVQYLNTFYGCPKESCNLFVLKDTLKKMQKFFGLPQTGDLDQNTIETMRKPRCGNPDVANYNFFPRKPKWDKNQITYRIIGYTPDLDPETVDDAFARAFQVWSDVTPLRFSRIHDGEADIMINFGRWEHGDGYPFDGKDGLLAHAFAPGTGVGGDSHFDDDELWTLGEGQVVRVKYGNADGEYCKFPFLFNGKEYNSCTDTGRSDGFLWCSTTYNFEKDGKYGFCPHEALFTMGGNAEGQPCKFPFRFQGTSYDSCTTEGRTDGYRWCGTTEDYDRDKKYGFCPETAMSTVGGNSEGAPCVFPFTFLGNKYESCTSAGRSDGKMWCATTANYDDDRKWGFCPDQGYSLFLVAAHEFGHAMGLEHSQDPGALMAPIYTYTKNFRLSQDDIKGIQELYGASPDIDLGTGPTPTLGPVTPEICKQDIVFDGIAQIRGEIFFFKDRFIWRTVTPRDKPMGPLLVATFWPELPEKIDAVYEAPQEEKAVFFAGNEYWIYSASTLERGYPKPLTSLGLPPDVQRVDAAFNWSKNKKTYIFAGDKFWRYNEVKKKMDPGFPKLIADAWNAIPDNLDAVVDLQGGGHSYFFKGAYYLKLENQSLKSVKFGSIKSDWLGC
Series [6] concerns the target Stromelysin-1 (Homo sapiens, UniProt P08254). In words: Inhibition of MMP3 (unknown origin) by FRET method.
A short description of series [7]: Apparent permeability from apical to basolateral side of MDCK cells by transwell assay. The settings on record: dog. Format: ADME, cell-based, Canis lupus familiaris.
Series [8] has as its target T3, A disintegrin and metalloproteinase with thrombospondin motifs 4 (Homo sapiens, UniProt O75173).
T3 sequence (O75173 whole entry): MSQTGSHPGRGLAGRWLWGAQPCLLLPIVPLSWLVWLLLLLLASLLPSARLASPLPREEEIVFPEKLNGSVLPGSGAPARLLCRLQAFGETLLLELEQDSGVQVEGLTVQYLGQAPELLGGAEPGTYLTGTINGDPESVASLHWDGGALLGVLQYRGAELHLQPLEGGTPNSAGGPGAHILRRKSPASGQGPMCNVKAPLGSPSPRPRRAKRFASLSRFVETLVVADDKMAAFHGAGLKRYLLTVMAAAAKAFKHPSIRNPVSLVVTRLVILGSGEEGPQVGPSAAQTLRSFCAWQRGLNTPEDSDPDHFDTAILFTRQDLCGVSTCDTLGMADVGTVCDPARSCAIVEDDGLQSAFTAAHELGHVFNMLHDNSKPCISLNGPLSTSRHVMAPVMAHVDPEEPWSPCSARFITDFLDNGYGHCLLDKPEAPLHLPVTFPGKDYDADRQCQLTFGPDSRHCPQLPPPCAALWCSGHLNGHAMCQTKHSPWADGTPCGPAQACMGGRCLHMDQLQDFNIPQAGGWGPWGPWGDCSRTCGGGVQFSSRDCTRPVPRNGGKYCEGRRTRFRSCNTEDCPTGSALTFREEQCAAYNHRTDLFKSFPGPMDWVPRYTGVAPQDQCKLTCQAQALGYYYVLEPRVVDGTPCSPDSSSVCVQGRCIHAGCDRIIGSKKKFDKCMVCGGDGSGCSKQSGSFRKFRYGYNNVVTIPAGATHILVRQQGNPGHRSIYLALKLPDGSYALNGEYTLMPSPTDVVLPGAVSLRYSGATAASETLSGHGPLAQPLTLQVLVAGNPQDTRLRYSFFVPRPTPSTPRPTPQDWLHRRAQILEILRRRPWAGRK
As to the kind of experiment: Inhibition of ADAMTS-4 (unknown origin) by FRET method.

Sequence of Stromelysin-1 (P08254 whole entry): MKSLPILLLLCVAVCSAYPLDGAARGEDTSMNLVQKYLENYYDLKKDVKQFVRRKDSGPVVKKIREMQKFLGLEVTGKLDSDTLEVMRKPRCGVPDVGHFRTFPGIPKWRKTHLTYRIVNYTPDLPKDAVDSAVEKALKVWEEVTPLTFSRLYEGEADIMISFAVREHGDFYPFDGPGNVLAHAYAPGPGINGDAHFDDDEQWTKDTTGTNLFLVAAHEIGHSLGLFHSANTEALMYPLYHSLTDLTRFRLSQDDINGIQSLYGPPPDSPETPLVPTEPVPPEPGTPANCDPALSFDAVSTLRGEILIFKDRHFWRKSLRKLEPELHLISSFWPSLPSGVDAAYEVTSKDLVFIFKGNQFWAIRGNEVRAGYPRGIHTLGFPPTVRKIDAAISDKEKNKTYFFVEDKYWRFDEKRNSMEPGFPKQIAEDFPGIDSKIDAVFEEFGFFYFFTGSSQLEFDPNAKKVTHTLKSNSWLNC

As a reminder, the CLint scaled is the rate of metabolic loss divided by the concentration. As usually defined, the IC50 is the concentration that gives 50% inhibition. High values mean a need for much substance, low ones inhibition by little substance. One may read the inhibition as how much of the control response was suppressed. What is called Papp A→B is the apparent permeability from the apical to the basolateral side of a cell layer. For `O=C(O)CCc1sc(/C=C2\NC(=O)CS2)nc1-c1ccccn1`, the CLint scaled in series [1] amounted to 2.7 mL/min/kg. The IC50 is 24 µM in series [2]; 0.23 µM in series [3]; more than 30 µM in series [5]; more than 30 µM in series [6]; 23 µM in series [8]. In series [4], this molecule gave an inhibition of 66%. Further, in series [7], the Papp A→B stood at 5.55 ×10⁻⁶ cm/s.
